Measurements from PMC12064818, “A general assay platform to study protein pharmacology using ligand-dependent structural dynamics” (Nature Communications, 2025).
Read-outs that look alike come from different tables or passages of the source.

Assays:
NLuc = biological target: T1, NLuc (Oplophorus gracilirostris, UniProt Q9GV45, A31E/A60N/A81I/F95D/I117V/K70R/L54V/L99Q/M102K/N193R/P142E/Q151K/Q38R/Q45L/V71I/Y165I); assay type: biochemical; details: - ATP
T1 construct: His tag (inferred from IMAC purification); made in house; host or cells: E. coli
Protocol: Compounds and controls were added to plates as described in Supplementary Data 8. Nano-Glo luciferase assay reagent (Promega) was prepared fresh according to manufacturer’s protocol, filtered and added at 3 μL per well across assay plates with a BioRaptr2 dispenser. Enzyme was incubated with Nano-Glo reagent for 10 min and NLuc luminescence was read on a ViewLux CCD imager (PerkinElmer), with 1 s exposure with medium gain and 2x binning. Data were normalized to average no enzyme control as 100% enzyme inhibition and average DMSO neutral control. See Supplementary Table 4 for additional details.
Supplementary Table 4. […]
Sequence Param eter Value Description […]
(§1) 5 Detector ViewLux Read plate lum inescence (Exposure = 1- 10 sec; Gain = Medium -high; Speed = Slow;
Dispensing solution was diluted in 1X PBS, pH 7.4.
NanoLuc luciferase (NLuc) enzym atic lum inescence assay […]
Nano-Glo luciferase assay reagent (Prom ega, Cat # N1120) prepared according to m anufacturer’s recom m endations,
4 com ponents stored at -30 °C until use, and reagent prepared fresh for each assay.
syringe filter prior to dispense.

P. pyralis FLuc = P. pyralis FLuc (Photinus pyralis, UniProt P08659); experiment: FLuc enzymatic luminescence assay, P. pyralis FLuc; assay type: biochemical; details: FLuc enzymatic assay; for IC50: read-out: IC50 or SDR50 (mM) FLuc E
Protocol: The enzyme activity of FLuc-N-HiBiT, FLuc-C-HiBiT, and FLuc-C-NLuc was measured similar to P. pyralis firefly luciferase (FLuc) as previously described. […] Compounds and controls were added to each plate as described in Supplementary Data 8 with a Hornet pintool system (Wako Automation). Compounds were incubated with respective enzymes for 30–60 min at room temperature protected from light and covered by solid metal lid to prevent evaporation. […] Luciferin was incubated with FLuc enzyme for 5 min before FLuc activity was then measured on a ViewLux CCD imager (PerkinElmer), with exposure times up to ten seconds with medium to high gain settings. Data were normalized to average no enzyme control as 100% enzyme inhibition and average DMSO neutral control. See Supplementary Table 4 for additional details.
Assays were run in the presence (solid symbols) or absence
(open symbols) of 10 µM ATP. Corresponding SMIL E S for NC GC IDs and source data are provided in
Supplementary Data 3 and as a Source Data file. 10
Supplementary Table 4. Protocol for Firefly luciferase (FLuc) and NanoLuc (NLuc) enzymatic
Supplementary Table 4: Protocol for Firefly luciferase (FLuc) and NanoLuc (NLuc) enzym atic lum inescence assay
Firefly luciferase (FLuc) enzym atic lum inescence assay
Sequence Param eter Value Description
No enzym e control (colum n 1) and enzym e solution (1- 10 nM FLuc enzym e) in FLuc assay
1 Reagent 4 µLbuffer; white/solid bottom , m edium bind, high base plates (Greiner), dispensed with BioRaptr
com pounds transferred to respective colum ns with Pintool
2b Test Com pounds 23 nLconcentration range) in colum ns 5- 48; com pounds transferred to respective wells with
3 Incubation 30 m in Incubate enzym e + com pounds at am bient tem p for 30 m in, protected from light
4 Reagent 3 µLAdd 3 µL of D-luciferin substrate solution to each well (final concentration 10 µM); dispensed
as §1
Dispensing solution was diluted in 1X PBS, pH 7.4. […]

[1] = biological target: FLuc-C-NLuc (firefly luciferase) (Photinus pyralis, UniProt P08659, form not given/L550V); experiment: SDR assay, FLuc-C-NLuc; details: - ATP
[2] = biological target: FLuc-C-HiBiT (firefly luciferase) (Photinus pyralis, UniProt P08659, form not given/L550V); experiment: SDR assay, FLuc-C-HiBiT; details: SDR max. response, clade S
Sequence of FLuc-C-HiBiT (firefly luciferase) (P08659 2-550 L550V, form open): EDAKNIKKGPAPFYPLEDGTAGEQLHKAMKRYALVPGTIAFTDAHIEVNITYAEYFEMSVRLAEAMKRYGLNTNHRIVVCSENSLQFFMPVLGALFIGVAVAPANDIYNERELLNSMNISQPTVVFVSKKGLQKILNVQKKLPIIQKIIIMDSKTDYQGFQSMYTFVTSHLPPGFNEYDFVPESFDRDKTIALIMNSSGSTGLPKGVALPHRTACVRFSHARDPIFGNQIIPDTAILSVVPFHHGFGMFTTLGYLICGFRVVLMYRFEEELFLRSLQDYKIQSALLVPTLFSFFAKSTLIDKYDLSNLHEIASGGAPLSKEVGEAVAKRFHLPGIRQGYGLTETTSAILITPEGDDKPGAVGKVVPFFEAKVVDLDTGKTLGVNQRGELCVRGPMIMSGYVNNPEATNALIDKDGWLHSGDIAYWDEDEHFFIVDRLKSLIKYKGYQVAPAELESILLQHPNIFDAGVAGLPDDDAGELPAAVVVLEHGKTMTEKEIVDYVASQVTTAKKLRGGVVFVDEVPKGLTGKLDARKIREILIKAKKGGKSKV

Sequence of P. pyralis FLuc (P08659 whole entry): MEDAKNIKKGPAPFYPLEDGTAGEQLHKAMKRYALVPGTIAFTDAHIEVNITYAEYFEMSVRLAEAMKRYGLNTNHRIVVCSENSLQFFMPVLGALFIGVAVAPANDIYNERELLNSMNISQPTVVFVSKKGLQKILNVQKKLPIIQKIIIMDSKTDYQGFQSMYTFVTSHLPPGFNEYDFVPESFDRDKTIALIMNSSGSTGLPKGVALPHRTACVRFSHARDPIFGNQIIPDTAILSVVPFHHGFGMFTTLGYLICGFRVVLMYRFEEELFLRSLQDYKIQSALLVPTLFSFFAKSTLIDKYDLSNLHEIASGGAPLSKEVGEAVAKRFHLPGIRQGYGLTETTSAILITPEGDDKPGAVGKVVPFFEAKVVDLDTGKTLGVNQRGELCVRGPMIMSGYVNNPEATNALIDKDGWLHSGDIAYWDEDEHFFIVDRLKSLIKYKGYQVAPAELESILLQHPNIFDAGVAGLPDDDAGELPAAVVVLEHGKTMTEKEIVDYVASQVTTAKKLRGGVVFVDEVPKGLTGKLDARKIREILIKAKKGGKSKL
Sequence of FLuc-C-NLuc (firefly luciferase) (P08659 2-550 L550V, form open): as the sequence (P08659 2-550 L550V, form open) above
T1 sequence (Q9GV45 other isoform, or with tags, fused parts or gaps with the stated changes): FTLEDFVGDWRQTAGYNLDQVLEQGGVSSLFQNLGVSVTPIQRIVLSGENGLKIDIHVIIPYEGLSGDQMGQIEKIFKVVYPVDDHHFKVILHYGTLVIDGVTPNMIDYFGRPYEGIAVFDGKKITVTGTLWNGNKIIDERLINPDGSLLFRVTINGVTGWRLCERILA

| SMILES | Efficacy (%) NLuc (- ATP) (NLuc) | pIC50 or pSDR50 FLuc E (P. pyralis FLuc) | Efficacy (%) FLuc E (P. pyralis FLuc; Clade S follow-up) | IC50 (P. pyralis FLuc) | Efficacy (%) FLuc-C-NLuc SDR (-ATP) [1] | % Activity (max response, + ATP) [2] | % Activity (max response, - ATP) [2] | pIC50 or pSDR50 FLuc E (P. pyralis FLuc; Clade S follow-up) | IC50 (P. pyralis FLuc; Clade S follow-up) |
| --- | --- | --- | --- | --- | --- | --- | --- | --- | --- |
| O=C(NCc1cccc(Cl)c1)C1CCN(C(=O)c2ncn3c2COC(c2ccccc2)C3)CC1 (stereo not shown) [NCGC00449787-01] | -16.86% | 4.96 | -81.06% | 0.0111 mM | 0.00% | 263.69% | 0.00% | – | – |
| COc1ccc(C2Cn3cnc(C(=O)N4CCC(C(=O)NC5CCCCCC5)CC4)c3CO2)cc1 (stereo not shown) [NCGC00449862-01] | -12.50% | – | 0.00% | – | 0.00% | 0.00% | 0.00% | – | – |
| O=C(NCCC1=CCCCC1)C1CCN(C(=O)c2ncn3c2COC(c2ccc(F)cc2)C3)CC1 (stereo not shown) [NCGC00449811-01] | 0.00% | 5.01 | -41.16% | 0.00988 mM | 0.00% | 50.67% | 0.00% | – | – |
| O=C(NC1CCCCC1)C1CCN(C(=O)c2ncn3c2COC(c2ccc(F)cc2)C3)CC1 (stereo not shown) [NCGC00449807-01] | 0.00% | 4.96 | -25.30% | 0.0111 mM | 0.00% | 42.77% | 0.00% | – | – |
| O=C(NCCc1ccccc1)C1CCN(C(=O)c2ncn3c2COC(c2ccc(Cl)cc2)C3)CC1 (stereo not shown) [NCGC00449854-01] | 0.00% | – | -25.47% | – | 0.00% | 0.00% | 0.00% | – | – |
| O=C(NCCCc1ccccc1)C1CCN(C(=O)c2ncn3c2COC(c2ccccc2)C3)CC1 (stereo not shown) [NCGC00449797-01] | 0.00% | 5.36 | -79.71% | 0.00441 mM | 0.00% | 265.99% | 0.00% | – | – |
| O=C(NCc1ccc(F)cc1)C1CCN(C(=O)c2ncn3c2COC(c2ccc(Cl)cc2)C3)CC1 (stereo not shown) [NCGC00449852-01] | 0.00% | – | -25.63% | – | 0.00% | 32.50% | 0.00% | 4.86 | 0.0139 mM |
| Cc1ccc(CNC(=O)C2CCN(C(=O)c3ncn4c3COC(c3ccccc3)C4)CC2)cc1 (stereo not shown) [NCGC00449774-01] | 0.00% | 5.01 | -84.01% | 0.00988 mM | 0.00% | 316.62% | 0.00% | – | – |
| CC(C)c1ccc(NC(=O)C2CCN(C(=O)c3ncn4c3COC(c3ccc(F)cc3)C4)CC2)cc1 (stereo not shown) [NCGC00449927-01] | 0.00% | – | -23.88% | – | 0.00% | 35.93% | 0.00% | 4.86 | 0.0139 mM |
| Cc1ccc(C2Cn3cnc(C(=O)N4CCC(C(=O)NCCc5ccccc5)CC4)c3CO2)cc1 (stereo not shown) [NCGC00449896-01] | 10.33% | – | -32.41% | – | 0.00% | 46.98% | 0.00% | 4.91 | 0.0124 mM |
| COc1ccc(CNC(=O)C2CCN(C(=O)c3ncn4c3COC(c3ccc(C)cc3)C4)CC2)cc1 (stereo not shown) [NCGC00449887-01] | 0.00% | – | -38.46% | – | 0.00% | 80.81% | 0.00% | 4.96 | 0.0111 mM |
| Cc1ccc(NC(=O)C2CCN(C(=O)c3ncn4c3COC(c3ccccc3)C4)CC2)cc1C (stereo not shown) [NCGC00449904-01] | 0.00% | – | -72.15% | – | 0.00% | 306.70% | 0.00% | 5.01 | 0.00988 mM |
| COc1ccc(C2Cn3cnc(C(=O)N4CCC(C(=O)NCC(C)C)CC4)c3CO2)cc1 (stereo not shown) [NCGC00449858-01] | 0.00% | – | -13.26% | – | 0.00% | 14.32% | 0.00% | – | – |
| O=C(NCc1cccc(F)c1)C1CCN(C(=O)c2ncn3c2COC(c2ccc(F)cc2)C3)CC1 (stereo not shown) [NCGC00449837-01] | 0.00% | – | -43.87% | – | 0.00% | 75.17% | 0.00% | 5.01 | 0.00988 mM |
| O=C(NCc1ccc(F)c(Cl)c1)C1CCN(C(=O)c2ncn3c2COC(c2ccccc2)C3)CC1 (stereo not shown) [NCGC00449790-01] | -17.00% | 5.46 | -95.32% | 0.0035 mM | 0.00% | 237.76% | 0.00% | – | – |
| O=C(NCc1cccc(F)c1)C1CCN(C(=O)c2ncn3c2COC(c2ccccc2)C3)CC1 (stereo not shown) [NCGC00449803-01] | 0.00% | 5.11 | -83.73% | 0.00784 mM | 0.00% | 254.28% | 0.00% | – | – |
| Cc1ccc(C2Cn3cnc(C(=O)N4CCC(C(=O)NC5CCCCC5)CC4)c3CO2)cc1 (stereo not shown) [NCGC00449882-01] | 0.00% | – | -33.56% | – | 0.00% | 52.31% | 0.00% | 4.91 | 0.0124 mM |
| CC(NC(=O)C1CCN(C(=O)c2ncn3c2COC(c2ccc(F)cc2)C3)CC1)c1ccc(F)cc1 (stereo not shown) [NCGC00449825-01] | 0.00% | – | 0.00% | – | 0.00% | 0.00% | 0.00% | – | – |
| COc1ccc(C2Cn3cnc(C(=O)N4CCC(C(=O)NC5CCCCC5)CC4)c3CO2)cc1 (stereo not shown) [NCGC00449860-01] | 0.00% | – | 0.00% | – | 0.00% | 0.00% | 0.00% | – | – |
| O=C(NCc1ccc(F)cc1)C1CCN(C(=O)c2ncn3c2COC(c2ccccc2)C3)CC1 (stereo not shown) [NCGC00449784-01] | 0.00% | 5.26 | -93.60% | 0.00555 mM | 0.00% | 341.35% | 0.00% | – | – |
